PubChem BioAssay AID330 (DTP/NCI, 2004)
“And” between values parts separate entries of the source, which are not always exact repeats. Equal values may be shown once. Toxic doses and inconclusive results are not listed. Square brackets hold non-standard residues; d marks the D form. Peptide text beside a SMILES is read from it. * marks the point of attachment. ξ: configuration not given here. ξF = NC(Cc1ccccc1)C(=O)O; Cbz = O=C(OCc1ccccc1)*

Tested on: P388 leukemia ip, CD2F1 mice, survival T/C
Assay: NCI In Vivo Anticancer Drug Screen. Data for tumor model P388 Leukemia (intraperitoneal) in CD2F1 (CDF1) mice
Settings: endpoint: median survival time, higher = longer survival
Experimental: The antitumor activity of compounds was measured in mice bearing transplantable tumors. Survival or tumor size were measured and the results are expressed as the measurement made in the treated group (T) divided by the measurement made in the vehicle treated control group (C). The tumor model used in this assay is P388 Leukemia (intraperitoneal) in CD2F1 (CDF1) mice

[1] = dose: 60.0 mg/kg/injection, schedule: Q01DX005 (ip), vehicle: saline with Tween-80
[2] = dose: 120.0 mg/kg/injection, schedule: Q01DX005 (ip), vehicle: saline with Tween-80
[3] = dose: 240.0 mg/kg/injection, schedule: Q01DX005 (ip), vehicle: saline with Tween-80
[4] = dose: 100.0 mg/kg/injection, schedule: Q04DX002 (ip), vehicle: saline with Tween-80
[5] = dose: 50.0 mg/kg/injection, schedule: Q01DX005 (ip), vehicle: Klucel (hydroxypropylcellulose) (HPC)
[6] = dose: 100.0 mg/kg/injection, schedule: Q01DX005 (ip), vehicle: Klucel (hydroxypropylcellulose) (HPC)
[7] = dose: 50.0 mg/kg/injection, schedule: Q01DX009 (ip), vehicle: Klucel (hydroxypropylcellulose) (HPC)
[8] = dose: 100.0 mg/kg/injection, schedule: Q01DX009 (ip), vehicle: Klucel (hydroxypropylcellulose) (HPC)
[9] = dose: 200.0 mg/kg/injection, schedule: Q01DX009 (ip), vehicle: Klucel (hydroxypropylcellulose) (HPC)
[10] = dose: 50.0 mg/kg/injection, schedule: Q01DX005 (ip), vehicle: saline with Tween-80
[11] = dose: 100.0 mg/kg/injection, schedule: Q01DX005 (ip), vehicle: saline with Tween-80
[12] = dose: 200.0 mg/kg/injection, schedule: Q01DX005 (ip), vehicle: Klucel (hydroxypropylcellulose) (HPC)

For C/C(C(=O)NC1CC1)=C(\C)c1ccc(Cl)cc1, the T/C (dose: 50.0 mg/kg/injection, schedule: Q04DX002 (ip), vehicle: Klucel (hydroxypropylcellulose) (HPC)) was 100 % of control, the T/C (dose: 100.0 mg/kg/injection, schedule: Q04DX002 (ip), vehicle: Klucel (hydroxypropylcellulose) (HPC)) was 103 % of control and the T/C (dose: 200.0 mg/kg/injection, schedule: Q04DX002 (ip), vehicle: Klucel (hydroxypropylcellulose) (HPC)) was 102 % of control.
For [CH2+][B-]1(C)n2cc(Br)c[n+]2[B-](C)(C)[n+]2cc(Br)cn21, the T/C [1] was 102 % of control, the T/C [2] was 103 % of control and the T/C [3] was 103 % of control.
For COC(=O)C1CC(OC(C)=O)C(O)C(O)C1OC(C)=O.[O]=[Os]=[O] (stereo not drawn), the T/C (dose: 200.0 mg/kg/injection, schedule: Q01DX001 (ip), vehicle: saline) was 123 % of control.
For O=[N+]([O-])c1ccc(C2OCC3CSCN32)cc1 (stereo not drawn), the T/C [4] was 107 % of control, the T/C (dose: 200.0 mg/kg/injection, schedule: Q04DX002 (ip), vehicle: saline with Tween-80) was 97 % of control and the T/C (dose: 400.0 mg/kg/injection, schedule: Q04DX002 (ip), vehicle: saline with Tween-80) was 97 % of control.
O=C1NC(=S)NC(=O)C1=Cc1cccc2cc3ccccc3cc12 was tested, and the T/C (dose: 25.0 mg/kg/injection, schedule: Q01DX005 (ip), vehicle: Klucel (hydroxypropylcellulose) (HPC)) was 100 % of control, the T/C [5] was 89 % of control and the T/C [6] was 95 % of control.
CCCCCCCCCCCCCCCC[N+](C)(C)CCSCC(N)=O was tested, and the T/C (dose: 12.5 mg/kg/injection, schedule: Q04DX003 (ip), vehicle: saline) was 109 % of control and the T/C (dose: 50.0 mg/kg/injection, schedule: Q04DX003 (ip), vehicle: saline) was 111 % of control and 121 % of control.
In the case of Cc1cccc2c(/C=C/c3ccc(N(C)C)cc3)ccnc12, the T/C (dose: 25.0 mg/kg/injection, schedule: Q01DX009 (ip), vehicle: Klucel (hydroxypropylcellulose) (HPC)) was 105 % of control, the T/C [7] was 105 % of control and 117 % of control and the T/C [8] was 117 % of control. The T/C [9] was 106 % of control.
COc1ccc(C(c2cc3c(cc2O)OCO3)N2CCN(C(c3ccc(OC)c(OC)c3)c3cc4c(cc3O)OCO4)CC2)cc1OC (stereo not drawn) was tested, and the T/C (dose: 60.0 mg/kg/injection, schedule: Q01DX005 (ip), vehicle: Klucel (hydroxypropylcellulose) (HPC)) was 89 % of control, the T/C (dose: 120.0 mg/kg/injection, schedule: Q01DX005 (ip), vehicle: Klucel (hydroxypropylcellulose) (HPC)) was 90 % of control and the T/C (dose: 240.0 mg/kg/injection, schedule: Q01DX005 (ip), vehicle: Klucel (hydroxypropylcellulose) (HPC)) was 105 % of control.
In the case of NC(N)=NS(=O)(=O)c1ccc(N=c2c3ccccc3n(-c3ccccc3)c3ccccc23)cc1, the T/C [10] was 90 % of control and the T/C [11] was 87 % of control.
With COC(=O)c1cc([O-])c2sc(C)c(C)[n+]2n1 the T/C [1] was 100 % of control, the T/C [2] was 100 % of control and the T/C [3] was 100 % of control.
With CCC12OCC(C)(C)N1OC(=O)N2c1ccccc1 (stereo not drawn) the T/C [5] was 96 % of control, the T/C [6] was 96 % of control and the T/C [12] was 97 % of control.
For Cc1nc(-c2ccccc2)c2c(C)[nH]c(-c3ccccc3)c2n1, the T/C [7] was 110 % of control, the T/C [8] was 112 % of control and the T/C [9] was 104 % of control.
With COC1=NC2(C)C(C)=C(c3ccccc3)C1(C)c1ccccc12 (stereo not drawn) the T/C [1] was 100 % of control, the T/C [2] was 98 % of control and the T/C [3] was 99 % of control.
For COC(=O)CNC(=O)C(NC(=O)C1CCCN1C(=O)OCc1ccccc1)C(C)C (stereo not drawn) (Cbz-Pro-Val-Gly-OMe; configuration not given here), the T/C [10] was 105 % of control, the T/C [11] was 100 % of control and the T/C (dose: 200.0 mg/kg/injection, schedule: Q01DX005 (ip), vehicle: saline with Tween-80) was 100 % of control.
With COc1cccc2c1C(=O)c1c(O)c3c(c(O)c1C2=O)CC(O)(C(=O)CO)CC3OC1CC(NC(=O)C(F)(F)F)C(OC2CC(N)C(O)C(C)O2)C(C)O1 (stereo not drawn) the T/C (dose: 3.13 mg/kg/injection, schedule: Q04DX003 (ip), vehicle: water) was 109 % of control, the T/C (dose: 12.5 mg/kg/injection, schedule: Q04DX003 (ip), vehicle: water) was 119 % of control and the T/C (dose: 25.0 mg/kg/injection, schedule: Q04DX003 (ip), vehicle: water) was 113 % of control. The T/C (dose: 50.0 mg/kg/injection, schedule: Q04DX003 (ip), vehicle: water) was 117 % of control.
In the case of O=S(=O)(NCCSSCCNS(=O)(=O)c1cccs1)c1cccs1, the T/C [7] was 88 % of control, the T/C [8] was 92 % of control and the T/C [9] was 100 % of control.
CCCn1c2nc(=O)[nH]c(=O)c-2cc2ccccc21 was tested, and the T/C (dose: 10.0 mg/kg/injection, schedule: Q01DX009 (ip), vehicle: saline with Tween-80) was 105 % of control, the T/C (dose: 20.0 mg/kg/injection, schedule: Q01DX009 (ip), vehicle: saline with Tween-80) was 103 % of control and the T/C (dose: 40.0 mg/kg/injection, schedule: Q01DX009 (ip), vehicle: saline with Tween-80) was 113 % of control.
OC1CC2CC1CC2c1cnc[nH]1 (stereo not drawn) was tested, and the T/C (dose: 12.5 mg/kg/injection, schedule: Q04DX002 (ip), vehicle: saline with Tween-80) was 100 % of control, the T/C (dose: 25.0 mg/kg/injection, schedule: Q04DX002 (ip), vehicle: saline with Tween-80) was 100 % of control and the T/C (dose: 50.0 mg/kg/injection, schedule: Q04DX002 (ip), vehicle: saline with Tween-80) was 100 % of control. The T/C [4] was 100 % of control.
In the case of C=C(C)c1cc(C(C)(C)C)cc(C(C)(C)O)c1S(C)(=O)=O, the T/C (dose: 100.0 mg/kg/injection, schedule: Q04DX003 (ip), vehicle: Klucel (hydroxypropylcellulose) (HPC)) was 97 % of control, the T/C (dose: 200.0 mg/kg/injection, schedule: Q04DX003 (ip), vehicle: Klucel (hydroxypropylcellulose) (HPC)) was 98 % of control and the T/C (dose: 400.0 mg/kg/injection, schedule: Q04DX003 (ip), vehicle: Klucel (hydroxypropylcellulose) (HPC)) was 95 % of control.
For Cn1nc2c(c1-c1ccncc1)CCc1ccccc1-2, the T/C (dose: 12.5 mg/kg/injection, schedule: Q01DX009 (ip), vehicle: other) was 110 % of control, the T/C (dose: 25.0 mg/kg/injection, schedule: Q01DX009 (ip), vehicle: other) was 105 % of control and the T/C (dose: 50.0 mg/kg/injection, schedule: Q01DX009 (ip), vehicle: other) was 115 % of control. For the same molecule, the T/C (dose: 100.0 mg/kg/injection, schedule: Q01DX009 (ip), vehicle: other) was 107 % of control and the T/C (dose: 200.0 mg/kg/injection, schedule: Q01DX009 (ip), vehicle: other) was 103 % of control.
For CN(C=O)CCN(C)C=O, the T/C (dose: 100.0 mg/kg/injection, schedule: Q04DX002 (ip), vehicle: saline) was 96 % of control, the T/C (dose: 200.0 mg/kg/injection, schedule: Q04DX002 (ip), vehicle: saline) was 99 % of control and the T/C (dose: 400.0 mg/kg/injection, schedule: Q04DX002 (ip), vehicle: saline) was 104 % of control.
In the case of NCC(=O)NC(Cc1ccccc1)C(=O)NCC(=O)O (stereo not drawn) (H-Gly-[ξF]-Gly-OH), the T/C [5] was 100 % of control, the T/C [6] was 104 % of control and the T/C [12] was 100 % of control.
O=C1C=CC(=O)C(C2OC(=O)C(Cl)=C2Cl)=C1 (stereo not drawn) was tested, and the T/C [10] was 110 % of control and the T/C [11] was 104 % of control.
COC(=O)Nc1nc2ccc(C(=O)c3ccccc3)cc2[nH]1 was tested, and the T/C (dose: 2.0 mg/kg/injection, schedule: Q04DX003 (ip), vehicle: saline with Tween-80) was 100 % of control, the T/C (dose: 4.0 mg/kg/injection, schedule: Q04DX003 (ip), vehicle: saline with Tween-80) was 100 % of control and the T/C (dose: 8.0 mg/kg/injection, schedule: Q04DX003 (ip), vehicle: saline with Tween-80) was 113 % of control. The T/C (dose: 16.0 mg/kg/injection, schedule: Q04DX003 (ip), vehicle: saline with Tween-80) was 118 % of control, the T/C (dose: 32.0 mg/kg/injection, schedule: Q04DX003 (ip), vehicle: saline with Tween-80) was 202 % of control and the T/C (dose: 64.0 mg/kg/injection, schedule: Q04DX003 (ip), vehicle: saline with Tween-80) was 190 % of control. The T/C (dose: 80.0 mg/kg/injection, schedule: Q04DX003 (ip), vehicle: other) was 192 % of control, the T/C (dose: 80.0 mg/kg/injection, schedule: Q04DX003 (oral), vehicle: other) was 112 % of control and 113 % of control and the T/C (dose: 80.0 mg/kg/injection, schedule: Q04DX003 (oral), vehicle: saline) was 98 % of control. For the same molecule, the T/C (dose: 320.0 mg/kg/injection, schedule: Q04DX003 (oral), vehicle: saline) was 115 % of control and the T/C (dose: 1280.0 mg/kg/injection, schedule: Q04DX003 (oral), vehicle: saline) was 165 % of control.
For FC(F)(F)S.[Hg], the T/C (dose: 2.5 mg/kg/injection, schedule: Q04DX003 (ip), vehicle: saline) was 95 % of control, the T/C (dose: 5.0 mg/kg/injection, schedule: Q04DX003 (ip), vehicle: saline) was 100 % of control and the T/C (dose: 10.0 mg/kg/injection, schedule: Q04DX003 (ip), vehicle: saline) was 95 % of control.
